These results are taken from PMC5790502, “The anti-rheumatic drug, leflunomide, synergizes with MEK inhibition to suppress melanoma growth” (Oncotarget, 2017).

The test system of one experiment is M375 melanoma tumors. As to the kind of experiment: Mouse xenograft study. The following applies: M375 xenograft in SCID mice, 12 days; leflunomide 7.5 mg/kg IP daily, selumetinib 30 mg/kg OG; vs vehicle control. The format is in vivo. The protocol: 8–10-week-old female severe immunodeficiency (SCID) mice were purchased from Charles River Laboratories. All procedures were performed under UK Home Office approved protocols and the University of East Anglia local guidelines. Experiments were conducted strictly in accordance with the locally approved animal handling protocol.
A total of 3 × 10^6 M375 melanoma cells were injected subcutaneously into 40 SCID mice. After approximately 4 weeks when the tumors were palpable, the mice were randomized into 4 arms. The 4 arms were; vehicle alone, leflunomide alone, selumetinib alone and leflunomide and selumetinib in combination. There were 10 mice in each arm. The drug regime was administered for 12 days. Leflunomide was administered by intraperitoneal (IP) injection daily at 7.5 mg/kg. Selumetinib was administered by oral gavage (OG) twice daily at 30 mg/kg for the first two days and was then delivered once daily thereafter. The tumor volume was measured every three days with calipers. Tumor volume was measured by the formula 0.52 (length × width^2). At the end of the experiment, the mice were culled and the excised tumors were weighed.

The subject of the next experiment is phospho-ERK. Description: Western blot of phospho-ERK. The class given is cell-based, human. The following applies: A375 and M202 cells; 0.1 or 1 µM selumetinib. The method, then:
A375 melanoma cells were seeded and treated for 72 hours in varying drug conditions. Total protein extracts were then made using high SDS content lysis buffer (60 mM sucrose, 65 mM Tris-HCl, pH 6.8. 3% SDS). Protein concentration was determined using the DC protein assay (BIORAD). 10 μg of whole-cell protein lysate was loaded onto a 10% SDS-PAGE gel and transferred onto polyvinylidene difluoride membranes (Bio-Rad). A standard Western blot protocol was used for detection of the specific proteins as previously described.
Antibodies used included; Rabbit polyclonal phospho-ERK (1:1000, Cell Signalling Technology); Rabbit polyclonal phospho-p44/42 MAPK (1:1000, ERK1/2; Cell Signalling Technology); Mouse monoclonal HSC-70 (1:1000, Santa-Cruz Biotechnology); Rabbit polyclonal Mcl-1 (1:500, Santa-Cruz Biotechnology); Rabbit polyclonal anti-BIM (1:500, Merck-Millipore); Rabbit polyclonal PARP (1:1000, Cell Signalling Technology); Rabbit polyclonal PUMA (1:1000, Cell Signalling Technology); anti-rabbit IgG HRP linked secondary antibody (1:2000, Jackson ImmunoResearch); Anti-mouse IgG HRP linked secondary antibody (1:2000, Jackson ImmunoResearch); All anti-rabbit IgG HRP linked secondary antibody (1:2000, Cell Signalling Technology).

Another experiment relates to SKmel28 melanoma cells. As to the kind of experiment: Cell viability assay (CellTiter-Glo). The format is cell-based. The following applies: Homo sapiens, SK-MEL-28, 72 hours treatment. The method, then: (§1) Cells that had been seeded 24 hours earlier on poly-L-lysine coated 96-well plates (Sigma-Aldrich) to subconfluency, were treated with drugs at the indicated concentrations for 72 hours. Cytochalasin D (Sigma Aldrich) was used as a positive control. All conditions were repeated in triplicate. Cell viability was determined on day 5 using the CellTiter-Glo Luminescence assay (Promega), according to the manufacturer’s instructions. Luminescence from the plate was read on a BMG LabTech Omega Series plate reader (data analyzed using OMEGA software). Cell viability was calculated as a percentage of the mean vehicle control.
(§2) For pharmacological analysis, IC50 values were generated using Prism Graphpad software (Graphpad Software, Inc.) and calculated using a nonlinear regression model. Combinatorial drug synergy was assessed by determination of combination index (CI), which was calculated using CalcuSyn (Biosoft) software using the median effects methods as described by Chou and Talalay, CI values less than 0.7 indicated synergy, 0.7–0.9 weak synergy, 0.9–1.1 additivity, 1.1–1.45 indicated weak antagonism and greater than 1.45 antagonism.

A further experiment has as its system M296 melanoma cells. Description: Cell viability assay (CellTiter-Glo). The format is cell-based. The following applies: Homo sapiens, 72 hours treatment. The protocol:
as §1, §2

The next experiment deals with M285 melanoma cells. As to the kind of experiment: Cell viability assay (CellTiter-Glo). The class given is cell-based. Particulars: Homo sapiens, 72 hours treatment. The protocol:
as §1, §2
Background: Cellular ATP, detected with luciferase, serves as a proxy for viable cell number.

The next experiment concerns A375 melanoma cells. As to the kind of experiment: Cell viability assay (CellTiter-Glo). The format is cell-based. Particulars: Homo sapiens, A-375, 72 hours treatment. The method, then:
as §1, §2

A further experiment deals with M375 melanoma cells. Description: Cell viability assay (CellTiter-Glo). The following applies: Homo sapiens. The class given is cell-based. The method, then: as §1, §2
The subject of another experiment is M229 melanoma cells. As to the kind of experiment: Cell viability assay (CellTiter-Glo). The format is cell-based. Particulars: Homo sapiens, 72 hours treatment. The method, then: as §1, §2
Another experiment deals with M202 melanoma cells. Description: Cell viability assay (CellTiter-Glo). The format is cell-based. The following applies: Homo sapiens, 72 hours treatment. The protocol: as §1, §2
In another experiment the test system is SKmel5 melanoma cells. As to the kind of experiment: Cell viability assay (CellTiter-Glo). The format is cell-based. The following applies: Homo sapiens; for IC50: SK-MEL-5, 72 hours treatment. The protocol: as §1, §2
The subject of experiment [1] is rhabdomyosarcoma cells (RD-1). As to the kind of experiment: Cell viability assay (CellTiter-Glo). Particulars: Homo sapiens. The format is cell-based. The protocol:
as §1, §2

`Cn1cnc2c(F)c(Nc3ccc(Br)cc3Cl)c(C(=O)NOCCO)cc21` [Selumetinib, selumetinib]: the tumor volume entry in the experiment on M375 melanoma tumors was “significantly reduced the average tumor volume”. The “amount of pERK protein” value with phospho-ERK is given as “decreases in a dose-dependent manner”. The IC50 with SKmel28 melanoma cells came to 430 nM; with M296 melanoma cells, 470 nM; in the experiment on M285 melanoma cells, 500 nM; in the experiment on A375 melanoma cells, 190 nM; with M375 melanoma cells (M375, 72 hours treatment) it was 100 nM; in the experiment with M375 melanoma cells (M375 melanoma cell line, Meki alone, combinatorial viability study (Figure 4A(i))), 64 nM. Besides, the IC50 turned out to be 200 nM in the experiment on M229 melanoma cells; 500 nM in the experiment on M202 melanoma cells; 1010 nM with SKmel5 melanoma cells; 1050 nM in experiment [1] (RD1, 72 hours treatment). The viability at 1 µM was found to be 51.8% in the experiment on SKmel5 melanoma cells (SK-MEL-5, 1 μM selumetinib, read-out: cell viability (relative to vehicle control)) and 55% in experiment [1] (RD1, 1 μM selumetinib, read-out: cell viability (relative to vehicle control)).

On to `CCCS(=O)(=O)Nc1ccc(F)c(C(=O)c2c[nH]c3ncc(-c4ccc(Cl)cc4)cc23)c1F` [Vemurafenib, vemurafenib], for which the IC50 in the experiment with SKmel28 melanoma cells is 800 nM; with M296 melanoma cells it was 2000 nM; in the experiment on A375 melanoma cells, 700 nM; with M229 melanoma cells, 300 nM; in the experiment on M202 melanoma cells it was 1700 nM; with SKmel5 melanoma cells, 150 nM.

A word on the IC50: it is the point on the concentration scale where inhibition reaches its midpoint. One may read the viability as the share of living cells, or the viability signal relative to a control.
